Results reported in patent publication EP3995521A1, “BLOCKED POLYISOCYANATE COMPOSITION, HYDROPHILIC POLYISOCYANATE COMPOSITION, RESIN COMPOSITION, RESIN FILM AND LAMINATED BODY” (Asahi Kasei Kabushiki Kaisha, priority 2019, dated 2021).

Test: Surface tension of dispersing agent at 25°C by Wilhelmy method (Physical property 1-5)
Format: physicochemical
Settings: aqueous solution of 0.1% by mass of the dispersing agent
Procedure: The surface tension may be determined by the following method, for example. An anionic dispersion agent is diluted with water to prepare an aqueous solution consisting of: 0.1% by mass of the anionic dispersion agent, relative to the total mass of the aqueous solution; and water. Then, the aqueous solution was used to measure the surface tension at 25°C by Wilhelmy method (which may be referred to as plate method or vertical plate method). Specifically, when a plate that is a measuring unit makes contact with the surface of the aqueous solution, the aqueous solution wets the plate upwards. At the time, the surface tension acts along the perimeter of the plate, and the force that pulls the plate into the aqueous solution generates. The pulling force F (force that acts on the plate, measuring force) is read, and the surface tension r is determined by the following formula. In the formula, L represents the perimeter (m) of the plate, and θ represents the contact angle of the plate and the aqueous solution. r = F/(L×cosθ) [formula]
The surface tension may be measured using a commercially available measurement device, such as static surface tension measurement system (manufactured by DKSH Japan, under the model number of TD 1C or TD 3).
Each dispersing agent used in the examples and comparative examples was diluted with water to prepare an aqueous solution of the dispersing agent consisting of: 0.1% by mass of the anionic dispersion agent, relative to the total mass of the aqueous solution; and water. Then, the resultant aqueous solution of the dispersing agent was used to measure the surface tension at 25°C by Wilhelmy method.

For `CCCCC(CC)COCCOCCOP(=O)([O-])O.[Na+]` [Example D-4, Polyoxyalkylene alkylether phosphoric acid ester], the “surface tension at 25°C” value was 30.7 mN/m.
For “Ammonium polyoxyethylene alkylether sulfate [Example D-6]”, the “surface tension at 25°C” value was 38.8 mN/m and the “surface tension at 25°C” value (listed as compound (II-1)) was 30.7 mN/m.
